These results are taken from patent US10723727B2, “Tubulysin analogs and methods for their preparation” (priority 2016, dated 2020).

For experiment [1], the target named is T1, tubulin/RB3-stathmin-like-domain (RB3-SLD-tdm) complex (Sus scrofa, UniProt P02550+P02554).
T1 construct: purchased Cytoskeleton, Inc. T240; host or cells: RB3-SLD was made in house in E. coli
Description: Tubulin Peptide-Binding Site Competition Assay (fluorescence polarization). Also noted: species or system Porcine. The conditions noted are these: FP competition with BODIPY-labeled vinca peptide probe; read after five hours at 22° C.; read-out: Tubulin Peptide-Binding Site Competition Assay IC50. The essentials: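 The BODIPY vinca-peptide probe was premixed with test compound and then added to porcine tubulin/RB3-SLD, at final concentrations of 3 nM probe, 6 nM tubulin and 100 nM RB3-SLD. The buffer was PIPES pH 7.0 with Tween 20, MgCl2 and EGTA, and 11-point dilutions were run in duplicate. IC50 was fitted from the fluorescence polarization decrease and converted to Ki.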

The subject of the next experiment is HT-29 cells. Kind of experiment: In vitro cell assay (MTS cell viability), HT-29 (target non-expressing). The conditions noted are these: Homo sapiens, HT-29, 96 h, free compounds; 96 hours after treatment; read-out: HT29 IC50. It is filed as cell-based. How it is done:
In Vitro Cell Assay Procedure
Target expressing (BT474 (breast cancer), N87 (gastric cancer), HCC1954 (breast cancer), MDA-MB-361-DYT2 (breast cancer)) or non-expressing (HT-29) cells were seeded in 96-well cell culture plates for 24 hours before treatment. Cells were treated with 3-fold serially diluted antibody-drug conjugates or free compounds (i. e. no antibody conjugated to the drug) in duplicate at 10 concentrations. Cell viability was determined by CellTiter 96® AQueous One Solution Cell Proliferation MTS Assay (Promega, Madison Wis.) 96 hours after treatment. Relative cell viability was determined as percentage of untreated control. IC50 values were calculated using a four parameter logistic model #203 with XLfit v4. 2 (IDBS, Guildford, Surry, UK).

For experiment [2], the system named is MDA-MB-361-DYT2 (breast cancer) cells. Kind of experiment: In vitro cell assay (MTS cell viability), MDA-MB-361-DYT2. Type of experiment: cell-based. As to conditions: 96 h, free compounds; 96 hours after treatment. The essentials: (§1)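 Cells seeded 24 h before treatment with antibody-drug conjugates or free compounds, 3-fold serial dilutions at 10 concentrations in duplicate. Viability read by MTS assay 96 h after treatment as % of untreated control; IC50 from four-parameter logistic fit.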

The subject of experiment [3] is N87 (gastric cancer) cells. Description: In vitro cell assay (MTS cell viability), N87. It is filed as cell-based. As to conditions: 96 h, free compounds; 96 hours after treatment. The essentials: as §1

The IC50 is the point on the concentration scale where inhibition reaches its midpoint.

As for `CCNC(=O)O[C@H](C[C@H](C(C)C)N(C)C(=O)[C@@H](NC(=O)C12CCCC(CCC1)N2C)[C@@H](C)CC)c1nc(C(=O)N[C@@H](Cc2ccc(N)cc2)C[C@H](C)C(=O)O)cs1` [#B27, (2S,4R)-5-(4-aminophenyl)-4-{[(2-{(1R,3R)-1-[(ethylcarbamoyl)oxy]-4-methyl-3-(methyl{N-[(9-methyl-9-azabicyclo[3.3.1]non-1-yl)carbonyl]-L-isoleucyl}amino)pentyl]-1,3-thiazol-4-yl}carbonyl)amino]-2-methylpentanoic acid], the IC50 in experiment [1] was below 0.648 nM; in the experiment with HT-29 cells it was 5.39 nM; in experiment [2], 5.46 nM; in experiment [3], 6.42 nM.
As to `CC[C@H](C)[C@H](NC(=O)[C@@]1(C)CCCN1C)C(=O)N(C)[C@H](C[C@@H](OC(C)=O)c1nc(C(=O)N[C@H](COCc2ccccc2)Cc2ccccc2)cs1)C(C)C` [#B61, 1,2-dimethyl-D-prolyl-N-[(1R,3R)-1-(acetyloxy)-1-(4-{[(2S)-1-(benzyloxy)-3-phenylpropan-2-yl]carbamoyl}-1,3-thiazol-2-yl)-4-methylpentan-3-yl]-N-methyl-L-isoleucinamide], the IC50 in experiment [1] was 19.1 nM; with HT-29 cells it was 14.7 nM; in experiment [2] it was 23.4 nM; in experiment [3], 38.5 nM.
On to `CC[C@H](C)[C@H](NC(=O)C12CCCC(CCC1)N2C)C(=O)N(C)[C@H](C[C@@H](OC(C)=O)c1nc(C(=O)N[C@@H](Cc2ccccc2)C[C@H](C)C(=O)OC)cs1)C(C)C` [#B16, methyl (2S,4R)-4-[({2-[(1R,3R)-1-(acetyloxy)-4-methyl-3-(methyl{N-[(9-methyl-9-azabicyclo[3.3.1]non-1-yl)carbonyl]-L-isoleucyl}amino)pentyl]-1,3-thiazol-4-yl}carbonyl)amino]-2-methyl-5-phenylpentanoate], for which the IC50 in experiment [1] is 10.4 nM; in the experiment on HT-29 cells, below 0.026 nM; in experiment [2], below 0.064 nM; in experiment [3], below 0.042 nM.
As for `CC[C@H](C)[C@H](NC(=O)[C@@]1(C)CCCN1C)C(=O)N(C)[C@H](C[C@@H](OC(C)=O)c1nc(C(=O)N[C@@H](Cc2ccccc2)[C@@H](O)C(=O)OC)cs1)C(C)C` [#B51, 1,2-dimethyl-D-prolyl-N-[(1R,3R)-1-(acetyloxy)-1-(4-{[(2S,3R)-3-hydroxy-4-methoxy-4-oxo-1-phenylbutan-2-yl]carbamoyl}-1,3-thiazol-2-yl)-4-methylpentan-3-yl]-N-methyl-L-isoleucinamide], the IC50 in experiment [1] turned out to be 11.7 nM; with HT-29 cells it was 2.2 nM; in experiment [2], 2.94 nM; in experiment [3] it was 7.78 nM.
As for `CC[C@H](C)[C@H](NC(=O)C12CC(CN1C)C2)C(=O)N(C)[C@H](C[C@@H](OC(C)=O)c1nc(C(=O)N[C@@H](Cc2ccccc2)C[C@H](C)C(=O)OC)cs1)C(C)C` [#B17, methyl (2S,4R)-4-[({2-[(1R,3R)-1-(acetyloxy)-4-methyl-3-(methyl{N-[(2-methyl-2-azabicyclo[2.1.1]hex-1-yl)carbonyl]-L-isoleucyl}amino)pentyl]-1,3-thiazol-4-yl}carbonyl)amino]-2-methyl-5-phenylpentanoate], the IC50 in experiment [1] amounted to 19.2 nM; in the experiment on HT-29 cells, 0.037 nM; in experiment [2], 0.04 nM; in experiment [3], 0.386 nM.
Take `CC[C@H](C)[C@H](NC(=O)[C@@]1(C)CCCN1C)C(=O)N(C)[C@H](C[C@@H](OC(=O)NC)c1nc(C(=O)N[C@@H](Cc2ccc(N)cc2)C[C@H](C)C(=O)O)cs1)C(C)C` [#B30, 1,2-dimethyl-D-prolyl-N-{(1R,3R)-1-(4-{[(2R,4S)-1-(4-aminophenyl)-4-carboxypentan-2-yl]carbamoyl}-1,3-thiazol-2-yl)-4-methyl-1-[(methylcarbamoyl)oxy]pentan-3-yl}-N-methyl-L-isoleucinamide]: the IC50 came out at 3.2 nM in experiment [1], 1.81 nM with HT-29 cells, 3.27 nM in experiment [2] and 2.67 nM in experiment [3].
As for `CC[C@H](C)[C@H](NC(=O)[C@H](NC)C(C)C)C(=O)N(C)[C@H](C[C@@H](OC(C)=O)c1nc(C(=O)N[C@@H](Cc2ccccc2)C[C@H](C)C(=O)O)cs1)C(C)C` [#B12, N-methyl-D-valyl-N-[(1R,3R)-1-(acetyloxy)-1-(4-{[(2R,4S)-4-carboxy-1-phenylpentan-2-yl]carbamoyl}-1,3-thiazol-2-yl)-4-methylpentan-3-yl]-N-methyl-L-isoleucinamide], the IC50 in experiment [1] is below 0.458 nM; in the experiment on HT-29 cells, 4.52 nM; in experiment [2], 2.97 nM; in experiment [3], 2.98 nM.
For `CC[C@H](C)[C@H](NC(=O)[C@@]1(C)CCCN1C)C(=O)N(C)[C@H](C[C@@H](OC(C)=O)c1nc(C(=O)NCC2(c3ccccc3)CC2)cs1)C(C)C` [#B53, 1,2-dimethyl-D-prolyl-N-[(1R,3R)-1-(acetyloxy)-4-methyl-1-(4-{[(1-phenylcyclopropyl)methyl]carbamoyl}-1,3-thiazol-2-yl}pentan-3-yl]-N-methyl-L-isoleucinamide], the IC50 came to 12.9 nM in experiment [1], 45.1 nM in the experiment with HT-29 cells, 34 nM in experiment [2] and 52.4 nM in experiment [3].
On the same counts, the results for `CC[C@H](C)[C@H](NC(=O)[C@@]1(C)CCCN1C)C(=O)N(C)[C@H](C[C@@H](OC(C)=O)c1nc(C(=O)NC(CO)Cc2ccccc2)cs1)C(C)C` (stereo partly drawn) [#B50, 1,2-dimethyl-D-prolyl-N-[(1R,3R)-1-(acetyloxy)-1-{4-[(1-hydroxy-3-phenylpropan-2-yl)carbamoyl]-1,3-thiazol-2-yl}-4-methylpentan-3-yl]-N-methyl-L-isoleucinamide] are 8.6 nM, 8.84 nM, 12.1 nM and 28.1 nM.
Consider `CC[C@H](C)[C@H](NC(=O)[C@@]1(C)CCCN1C)C(=O)N(C)[C@H](C[C@@H](OC(C)=O)c1nc(C(=O)NCCn2nnc3ccccc32)cs1)C(C)C` [#B79, 1,2-dimethyl-D-prolyl-N-[(1R,3R)-1-(acetyloxy)-1-(4-{[2-(1H-benzotriazol-1-yl)ethyl]carbamoyl}-1,3-thiazol-2-yl)-4-methylpentan-3-yl]-N-methyl-L-isoleucinamide], for which the IC50 in experiment [1] turned out to be 8.6 nM; with HT-29 cells it was 4.39 nM; in experiment [2] it was 5.69 nM; in experiment [3], 11.2 nM.
`CC[C@H](C)[C@H](NC(=O)[C@@]1(C)CCCN1C)C(=O)N(C)[C@H](C[C@@H](OC(=O)N(C)C)c1nc(C(=O)N[C@@H](Cc2ccc(N)cc2)C[C@H](C)C(=O)O)cs1)C(C)C` [#B31, 1,2-dimethyl-D-prolyl-N-{(1R,3R)-1-(4-{[(2R,4S)-1-(4-aminophenyl)-4-carboxypentan-2-yl]carbamoyl}-1,3-thiazol-2-yl)-1-[(dimethylcarbamoyl)oxy]-4-methylpentan-3-yl}-N-methyl-L-isoleucinamide]: the half-inhibitory concentration (IC50) in experiment [1] turned out to be 3.1 nM; in the experiment with HT-29 cells, 3.86 nM; in experiment [2] it was 4.04 nM; in experiment [3] it was 3.83 nM.
Take `CCNC(=O)O[C@H](C[C@H](C(C)C)N(C)C(=O)[C@@H](NC(=O)[C@@]1(C)CCCN1C)[C@@H](C)CC)c1nc(C(=O)N[C@@H](Cc2ccc(N)cc2)C[C@H](C)C(=O)O)cs1` [#B21, 1,2-dimethyl-D-prolyl-N-{(1R,3R)-1-(4-{[(2R,4S)-1-(4-aminophenyl)-4-carboxypentan-2-yl]carbamoyl}-1,3-thiazol-2-yl)-1-[(ethylcarbamoyl)oxy]-4-methylpentan-3-yl}-N-methyl-L-isoleucinamide]: the IC50 came to 1.9 nM in experiment [1], 1.62 nM in the experiment on HT-29 cells, 1.93 nM in experiment [2] and 1.87 nM in experiment [3].
As to `CC[C@H](C)[C@H](NC(=O)[C@@]1(C)CCCN1C)C(=O)N(C)[C@H](C[C@@H](O)c1nc(C(=O)N[C@@H](Cc2ccccc2)C[C@H](C)C(=O)O)cs1)C(C)C` [#B15, 1,2-dimethyl-D-prolyl-N-[(1R,3R)-1-(4-{[(2R,4S)-4-carboxy-1-phenylpentan-2-yl]carbamoyl}-1,3-thiazol-2-yl)-1-hydroxy-4-methylpentan-3-yl]-N-methyl-L-isoleucinamide], the IC50 in experiment [1] was 7 nM; in the experiment on HT-29 cells, above 100 nM; in experiment [2], above 100 nM; in experiment [3], above 100 nM.
`CC[C@H](C)[C@H](NC(=O)[C@@]1(C)CCCN1C)C(=O)N(C)[C@H](C[C@@H](O)c1nc(C(=O)N[C@@H](Cc2ccc(N)cc2)C[C@H](C)C(=O)O)cs1)C(C)C` [#B32, 1,2-dimethyl-D-prolyl-N-[(1R,3R)-1-(4-{[(2R,4S)-1-(4-aminophenyl)-4-carboxypentan-2-yl]carbamoyl}-1,3-thiazol-2-yl)-1-hydroxy-4-methylpentan-3-yl]-N-methyl-L-isoleucinamide]: the IC50 in experiment [1] is 12.3 nM; in the experiment on HT-29 cells, above 100 nM; in experiment [2], above 100 nM; in experiment [3] it was above 100 nM.
